Measured values from patent US4269717A, “Boiler additives for oxygen scavenging” (priority 1980, dated 1981).
Where two headings read alike, the source gives them in different places.

Key:
[1] = 227-239° F.; for % O2 Removal / Final O2: initial O2 40 ppb; for Oxygen scavenging activity relative to hydrazine: Table II
Protocol: A second more extensive group of potential oxygen scavengers were compared, again using a small laboratory boiler and oxygen saturated feed water containing sodium hydroxide. […] The hydrazine salts among this group are no less toxic than hydrazine and therefore were eliminated from further study. […] In addition, the carbohydrazide was preferred because it is a solid at room temperature and could therefore be used in dry formulations.
INITIAL SCREENING AT 227-239° F.

[2] = Initial oxygen scavenger screening in laboratory boiler at 200-220° F. (Table I)
Protocol: A small laboratory boiler was used to screen a number of potential oxygen scavengers. Oxygen saturated feed water which contained sodium hydroxide was used as the feed. The residence time for the treatment chemical was approximately 11 minutes. The boiler water temperature was maintained at between 200°-220° F. In these tests, 2% hydroquinone was used as the catalyst.
INITIAL SCREENING AT 200-220° F.

[3] = Metal passivation in experimental firerod boiler (Table IV); details: 600 p.s.i., 48 hour test
Excerpt: Metal passivation studies were undertaken using an experimental firerod boiler under the following test conditions:
10 boiler water concentrations
40 ppm M alkalinity (as CaCO3)
A blank containing no oxygen scavenger was followed by test runs with hydrazine, carbohydrazide, and sodium sulfite.
*Tubes ranked by appearance of metal surface.

[4] = Carbohydrazide low temperature hydrolysis (Table V); format: physicochemical; details: for ppm Hydrazine: 100 ppm hydrazine control, pH 10.25
Protocol: Low temperature hydrolysis studies of carbohydrazide were carried out using reagent grade carbohydrazide containing approximately 2.7±0.1% hydrazine as an impurity. A 1,000 ppm carbohydrazide solution and a 100 ppm hydrazine solution were prepared with deaerated, deionized water. Half of the carbohydrazide solution was adjusted to pH 10.2 with sodium hydroxide and the other half was left at its original pH of 6.9. The solutions were poured into Nessler tubes to overflowing and sealed with stoppers fitted with hypodermic needles to allow pressure release with minimum air contact. Four samples of both of the carbohydrazide solutions and two samples of the hydrazine control were stored at varying temperatures for varying periods of time, all as reported in Table V below.

[5] = Carbohydrazide vs. hydrazine in oxygen removal, once-through apparatus (Table III); details: initial O2 7.4 ppm, 227-239° F., pH about 10.5
Protocol: A once-through experimental apparatus for simulating boiler water transport was utilized in this example. Water temperature in this example was maintained at about 227°-239° F. and pH at about 10.5.

Solubility in water = format: physicochemical

Compound | % O2 Removal [1] [%] | Final O2 [1] [ppb] | Oxygen scavenging activity relative to hydrazine [1] | also measured
Di (methylformal)diazine | 0 | 40 | – | –
COC(=O)NNC(=O)OC [Dimethyldihydrazodicarboxylate] | 50 | 20 | – | –
NNC=O [Formohydrazide] | 0 | 40 | – | –
O=S([O-])[O-].[Na+].[Na+] [Na2 SO3, sodium sulfite, reference compound] | – | – | – | Final O2 ([2]; dosage 400 ppb, pH 9.65, initial O2 40 ppb): .005 ppb; Tube Rank (by appearance of metal surface) ([3]; dosage 20-40 ppm residual): 2
O=CNNC=O [Diformohydrazide] | 0 | 40 | – | –
O=C(O)NNC(=O)O [Disodiumdihydrazodicarboxylate] | 75 | 10 | activity comparable to hydrazine | –
NN [Hydrazine, hydrazine, reference compound] | 87.5 | 5 | – | ppm Hydrazine ([4]; 120° F., 6 days): 86.6 ppm; ppm Hydrazine ([4]; 180° F., 6 days): 87.6 ppm; ppm Hydrazine ([4]; Room Temp. (77° F.), 6 days): 89.8 ppm; ppm Hydrazine ([4]; time 0): 97.4 ppm; Loss of initial hydrazine concentration ([4]; hydrazine control, after 6 days): approximately 10%; % O2 Removal ([5]; ppm scavenger/ppm O2 0.1/1): 15.4%; Final O2 ([5]; ppm scavenger/ppm O2 0.1/1): 6.26 ppm; % O2 Removal ([5]; ppm scavenger/ppm O2 0.9/1): 70.5%; Final O2 ([5]; ppm scavenger/ppm O2 0.9/1): 2.18 ppm; % O2 Removal ([5]; ppm scavenger/ppm O2 10.0/1): 99.2%; Final O2 ([5]; ppm scavenger/ppm O2 10.0/1): 0.06 ppm; Tube Rank (by appearance of metal surface) ([3]; dosage 2 ppm): 3
NN.NN.O=S(O)O [Hydrazinium sulfite, reference compound] | – | 5 | activity comparable to hydrazine | –
NNC(=O)C(=O)NN [Oxalic dihydrazide] | – | – | – | Solubility in water (Table II) (Solubility in water): Insoluble In Water
NN.O=S(=O)(O)O [Hydrazine sulfate, Hydrazinium sulfate, reference compound] | 87.5 | 5 | activity comparable to hydrazine | Final O2 ([2]; dosage 500 ppb, pH 10.5, initial O2 40 ppb, 2% hydroquinone catalyst): 10 ppb
